Among the data in US11180474B2 (BRISTOL-MYERS SQUIBB COMPANY, priority 2016, dated 2021) are IC50 values, retold here.

One assay has as its target T1, human TLR9 (Homo sapiens, UniProt Q9NR96).
T1 construct: host or cells: HEK-Blue cells
T1 sequence (Q9NR96 26-1032): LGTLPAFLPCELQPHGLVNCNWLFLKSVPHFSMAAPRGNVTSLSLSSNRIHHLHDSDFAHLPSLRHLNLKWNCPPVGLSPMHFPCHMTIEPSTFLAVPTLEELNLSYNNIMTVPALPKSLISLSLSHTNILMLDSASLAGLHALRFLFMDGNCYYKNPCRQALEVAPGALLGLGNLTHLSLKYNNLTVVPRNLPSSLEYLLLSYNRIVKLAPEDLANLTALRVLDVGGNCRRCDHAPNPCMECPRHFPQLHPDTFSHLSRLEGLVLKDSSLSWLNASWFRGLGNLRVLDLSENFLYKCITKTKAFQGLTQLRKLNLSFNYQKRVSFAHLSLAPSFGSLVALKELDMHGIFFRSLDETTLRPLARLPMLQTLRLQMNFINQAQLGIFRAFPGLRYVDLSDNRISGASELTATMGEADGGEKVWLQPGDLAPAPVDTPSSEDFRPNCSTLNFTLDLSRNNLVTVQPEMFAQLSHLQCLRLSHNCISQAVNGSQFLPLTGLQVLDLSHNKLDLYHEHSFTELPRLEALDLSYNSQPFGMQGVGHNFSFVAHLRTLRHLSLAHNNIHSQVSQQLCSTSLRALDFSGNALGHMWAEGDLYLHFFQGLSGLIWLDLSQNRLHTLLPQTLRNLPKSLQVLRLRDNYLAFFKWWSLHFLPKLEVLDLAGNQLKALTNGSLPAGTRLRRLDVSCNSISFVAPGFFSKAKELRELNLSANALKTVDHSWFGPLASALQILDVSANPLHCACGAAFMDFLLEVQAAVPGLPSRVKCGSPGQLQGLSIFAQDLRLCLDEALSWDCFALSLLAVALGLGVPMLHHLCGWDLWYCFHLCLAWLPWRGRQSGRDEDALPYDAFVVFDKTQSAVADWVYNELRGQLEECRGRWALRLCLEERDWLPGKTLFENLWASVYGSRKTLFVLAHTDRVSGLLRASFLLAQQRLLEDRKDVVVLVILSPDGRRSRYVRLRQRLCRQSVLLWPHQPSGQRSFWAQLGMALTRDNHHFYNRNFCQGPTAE
Put plainly: TLR9 inhibition reporter assay (HEK-Blue cells, SEAP reporter, ODN2006 stimulation). The conditions noted are these: HEK-Blue cells overexpressing human TLR9, ODN2006 5 nM. The assay is classed as cell-based. The procedure, abridged: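 HEK-Blue cells overexpressing human TLR7, TLR8 or TLR9 carry a SEAP reporter driven by NF-κB/AP-1 sites. Compounds (0.05 nM–50 μM) were preincubated 30 min at room temperature, then cells were stimulated with gardiquimod 7.5 μM (TLR7), R848 15.9 μM (TLR8) or ODN2006 5 nM (TLR9) for 22 h at 37 °C.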
(In general: In a reporter assay the amount or activity of a reporter protein is the signal.)

The next assay concerns the target T2, human TLR7 (Homo sapiens, UniProt Q9NYK1).
T2 construct: host or cells: HEK-Blue cells
T2 sequence (Q9NYK1 27-1049): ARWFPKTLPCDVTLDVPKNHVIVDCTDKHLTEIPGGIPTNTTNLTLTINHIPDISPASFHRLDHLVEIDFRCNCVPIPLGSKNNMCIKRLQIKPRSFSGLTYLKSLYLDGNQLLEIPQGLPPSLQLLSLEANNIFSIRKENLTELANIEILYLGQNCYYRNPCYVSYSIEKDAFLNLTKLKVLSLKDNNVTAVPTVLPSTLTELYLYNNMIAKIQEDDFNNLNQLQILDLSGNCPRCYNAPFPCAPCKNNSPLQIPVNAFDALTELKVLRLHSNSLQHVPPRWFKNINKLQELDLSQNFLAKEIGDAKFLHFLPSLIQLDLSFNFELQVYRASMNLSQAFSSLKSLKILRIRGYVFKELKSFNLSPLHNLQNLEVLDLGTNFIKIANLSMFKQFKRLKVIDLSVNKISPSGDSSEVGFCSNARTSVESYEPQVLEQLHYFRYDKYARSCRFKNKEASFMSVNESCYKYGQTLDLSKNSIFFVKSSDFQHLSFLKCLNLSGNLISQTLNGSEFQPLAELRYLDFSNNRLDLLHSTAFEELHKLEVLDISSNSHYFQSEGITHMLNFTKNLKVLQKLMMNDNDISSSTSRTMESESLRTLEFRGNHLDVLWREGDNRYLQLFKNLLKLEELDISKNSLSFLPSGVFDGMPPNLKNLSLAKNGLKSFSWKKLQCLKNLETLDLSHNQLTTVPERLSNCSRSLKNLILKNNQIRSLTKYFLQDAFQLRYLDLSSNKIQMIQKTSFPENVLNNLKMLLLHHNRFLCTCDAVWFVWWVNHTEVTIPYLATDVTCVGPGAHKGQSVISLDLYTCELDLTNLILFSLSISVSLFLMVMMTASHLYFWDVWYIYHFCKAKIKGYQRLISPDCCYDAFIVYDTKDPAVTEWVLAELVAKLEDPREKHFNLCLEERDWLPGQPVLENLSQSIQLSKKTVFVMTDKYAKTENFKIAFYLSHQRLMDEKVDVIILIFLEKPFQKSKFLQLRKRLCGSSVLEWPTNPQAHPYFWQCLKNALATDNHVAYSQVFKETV
The experiment in a line: TLR7 inhibition reporter assay (HEK-Blue cells, SEAP reporter, gardiquimod stimulation). The assay is classed as cell-based. The conditions noted are these: HEK-Blue cells overexpressing human TLR7, gardiquimod 7.5 μM. The procedure, abridged: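 SEAP readout via HEK-Blue Detection medium after 22 h at 37 °C, 5% CO2 defines inhibition, normalized between agonist-plus-DMSO wells and a reference inhibitor. Compound dose range 0.05 nM–50 μM; TLR7 cells at 15,000/well (gardiquimod), TLR8 at 20,000/well (R848).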

Structures are written as SMILES. pIC50: −log10 of the molar value.

In the case of `COc1ccc(-c2[nH]c3ccc(C4CCN(CCN(C)CC5CC5)CC4)cc3c2C)cc1OC` [Example 112, N-(cyclopropylmethyl)-2-(4-(2-(3,4-dimethoxyphenyl)-3-methyl-1H-indol-5-yl)piperidin-1-yl)-N-methylethan-1-amine], the figures for the pIC50 on human TLR9 and against human TLR7 were 6.50 and 6.60, respectively.

`COc1ccc(-c2[nH]c3ccc(C4CCN(Cc5ccc(-n6ccnc6)cc5)CC4)cc3c2C(C)C)cc1OC` [Example 263, 5-(1-(4-(1H-imidazol-1-yl)benzyl)piperidin-4-yl)-2-(3,4-dimethoxyphenyl)-3-isopropyl-1H-indole]: the results for the pIC50 against human TLR9 and against human TLR7 were 6.10 and 7.09, respectively.

On to `COc1ccc(-c2[nH]c3ccc(C4CCN(Cc5nccs5)CC4)cc3c2C(C)C)cc1OC` [Example 261, 2-((4-(2-(3,4-dimethoxyphenyl)-3-isopropyl-1H-indol-5-yl)piperidin-1-yl)methyl)thiazole], for which the results for the pIC50 at human TLR9 and against human TLR7 were 5.24 and 6.74, respectively.

Turning to `CCC(CC)CN1CCC(c2ccc3[nH]c(-c4ccc(OC)c(OC)c4)c(C(C)C)c3c2)CC1` [Example 265, 2-(3,4-dimethoxyphenyl)-5-(1-(2-ethylbutyl)piperidin-4-yl)-3-isopropyl-1H-indole], the pIC50 on human TLR9 is at most 4.30; at human TLR7 it was 6.74.

`CCc1c(-c2ccc(OC)c(OC)c2)[nH]c2ccc(C3CCN(C(=O)CN4CCN(C(=O)C5CCCO5)CC4)CC3)cc12` (centres unmarked) [Example 172, 1-(4-(2-(3,4-dimethoxyphenyl)-3-ethyl-1H-indol-5-yl)piperidin-1-yl)-2-(4-(tetrahydrofuran-2-carbonyl)piperazin-1-yl)ethan-1-one]: the values for the pIC50 at human TLR9 and against human TLR7 were 4.71 and 6.58, respectively.

On to `COc1ccc(-c2[nH]c3ccc(C4CCN(Cc5ccc6cnccc6c5)CC4)cc3c2C)cc1OC` [Example 31, 6-((4-(2-(3,4-dimethoxyphenyl)-3-methyl-1H-indol-5-yl)piperidin-1-yl)methyl)isoquinoline], for which the results for the pIC50 against human TLR9 and on human TLR7 were 6.65 and 6.46, respectively.

As to `COc1ccc(-c2[nH]c3ccc(C4CCN(C5CCN(C6CCCC(C)C6)CC5)CC4)cc3c2C)cc1OC` (centres unmarked) [Example 67, 2-(3,4-dimethoxyphenyl)-3-methyl-5-(1′-(3-methylcyclohexyl)-[1,4′-bipiperidin]-4-yl)-1H-indole], the results for the pIC50 against human TLR9 and at human TLR7 were 7.15 and 5.71, respectively.

As for `COc1ccc(-c2[nH]c3ccc(C4CCN(C5COC5)CC4)cc3c2C)cc1OC` [Example 7, 2-(3,4-dimethoxyphenyl)-3-methyl-5-(1-(oxetan-3-yl)piperidin-4-yl)-1H-indole], the negative logarithm of the IC50 (pIC50) at human TLR9 is 6.24; against human TLR7, 5.67.

Turning to `CCc1c(-c2ccc(OC)c(OC)c2)[nH]c2ccc(C3CCN(C(=O)CNC45CC6CC(CC(O)(C6)C4)C5)CC3)cc12` [Example 163, 1-(4-(2-(3,4-dimethoxyphenyl)-3-ethyl-1H-indol-5-yl)piperidin-1-yl)-2-(((1r,3s,5R,7S)-3-hydroxyadamantan-1-yl)amino) ethan-1-one], the negative-log IC50 (pIC50) was 5.66 against human TLR9 and 6.55 at human TLR7.

On to `COc1ccc(-c2[nH]c3ccc(C4CCN(Cc5cccn5C)CC4)cc3c2C)cc1OC` [Example 29, 2-(3,4-dimethoxyphenyl)-3-methyl-5-(1-((1-methyl-1H-pyrrol-2-yl)methyl)piperidin-4-yl)-1H-indole], for which the pIC50 against human TLR9 was 6.10; against human TLR7, 5.79.

`COc1ccc(-c2[nH]c3ccc(C4CCN(Cc5ccc(-n6ccnc6)cc5)CC4)cc3c2C)cc1OC` [Example 39, 5-(1-(4-(1H-imidazol-1-yl)benzyl)piperidin-4-yl)-2-(3,4-dimethoxyphenyl)-3-methyl-1H-indole]: the negative-log IC50 (pIC50) on human TLR9 is 6.60; on human TLR7, 5.70.

With `COc1ccc(-c2[nH]c3ccc(C4CCN(CCN(C)C)CC4)cc3c2C)cc1OC` [Example 415, 2-(4-(2-(3,4-dimethoxyphenyl)-3-methyl-1H-indol-5-yl)piperidin-1-yl)-N,N-dimethylethan-1-amine], the pIC50 against human TLR9 is 5.97; on human TLR7, 5.67.

As for `CCc1c(-c2ccc(OC)c(OC)c2)[nH]c2ccc(C3CCN(C(=O)CNC4(CO)CCCC4)CC3)cc12` [Example 160, 1-(4-(2-(3,4-dimethoxyphenyl)-3-ethyl-1H-indol-5-yl)piperidin-1-yl)-2-((1-(hydroxymethyl)cyclopentyl)amino)ethan-1-one], the pIC50 on human TLR9 is 5.72; against human TLR7 it was 6.93.

Take `CCc1c(-c2ccc(OC)c(OC)c2)[nH]c2ccc(C3CCN(C(=O)CN4CCOCC4)CC3)cc12` [Example 167, 1-(4-(2-(3,4-dimethoxyphenyl)-3-ethyl-1H-indol-5-yl)piperidin-1-yl)-2-morpholinoethan-1-one]: the pIC50 was 4.48 on human TLR9 and 6.75 against human TLR7.

With `COc1ccc(-c2[nH]c3ccc(C4CCN(Cc5cccc6ncccc56)CC4)cc3c2C)cc1OC` [Example 15, 5-((4-(2-(3,4-dimethoxyphenyl)-3-methyl-1H-indol-5-yl)piperidin-1-yl)methyl)quinoline], the negative logarithm of the IC50 (pIC50) was 6.22 at human TLR9 and 5.08 against human TLR7.

Consider `CNCCN1CCC(c2ccc3[nH]c(-c4ccc(OC)c(OC)c4)c(CC4CC4)c3c2)CC1` [Example 117, 2-(4-(3-(cyclopropylmethyl)-2-(3,4-dimethoxyphenyl)-1H-indol-5-yl)piperidin-1-yl)-N-methylethanamine di-trifluoroacetic acid], for which the pIC50 is 6.05 on human TLR9 and 5.87 against human TLR7.

Regarding `COc1ccc(-c2[nH]c3ccc(C4CCN(C5CCN(C(C)=O)CC5)CC4)cc3c2C)cc1OC` [Example 12, 1-(4-(2-(3,4-dimethoxyphenyl)-3-methyl-1H-indol-5-yl)-[1,4′-bipiperidin]-1′-yl)ethan-1-one], the pIC50 was 6.19 on human TLR9 and 5.87 on human TLR7.

`COc1ccc(-c2[nH]c3ccc(C4CCN(C5CCCN(CC(C)C)C5)CC4)cc3c2C)cc1OC` (centres unmarked) [Example 417, 2-(3,4-dimethoxyphenyl)-5-(1′-isobutyl-[1,3′-bipiperidin]-4-yl)-3-methyl-1H-indole]: the figures for the negative logarithm of the IC50 (pIC50) against human TLR9 and against human TLR7 were 6.25 and 5.93, respectively.

As for `COc1ccc(-c2[nH]c3ccc(C4CCN(Cc5ccc(N(C)C)c6ccccc56)CC4)cc3c2C)cc1OC` [Example 19, 4-((4-(2-(3,4-dimethoxyphenyl)-3-methyl-1H-indol-5-yl)piperidin-1-yl)methyl)-N,N-dimethylnaphthalen-1-amine], the negative-log IC50 (pIC50) was 5.59 against human TLR9 and 4.98 against human TLR7.

What is called pIC50 is the negative decadic logarithm of the IC50, by convention in mol/L. A high value points to a small IC50.
